Data published in US12498382B2, “Biomarkers for vitiligo” (INCYTE CORPORATION, priority 2019, dated 2025).

System: HaCaT cells
Assay: Concentrations of inflammatory mediators produced by HaCaT cells stimulated with TNFα and IFNγ in presence/absence of JAK inhibitors (ProCarta)
Type: cell-based, human
Description: After 48 hours, cell culture media was removed from 24 well plates and replaced with 250 uL of media containing serial diluted drug, then incubated for 15 minutes at 37° C./5% CO2. […] The final concentration of Recombinant Human Interferon gamma and Recombinant Human Tumor Necrosis Factor alpha was 25 ng/mL of each cytokine. Cytokine stimulation added to wells containing drug brought the final concentrations for each drug treatment to 25 nM, 50 nM, 100 nM, and 200 nM. Treated plates were mixed by gentle agitation for 30 seconds then incubated for 24 hours at 37° C./5% CO2. At the end of the 24 hour incubation media was immediately removed from each plate.
Media was incubated with antibody conjugated beads designed to bind to the epitopes of specific target proteins and identify the bound protein through the bead's distinctive spectral pattern. Biotinylated detection antibodies, designed to bind to different epitopes of the same target proteins, and Streptavidin-PE are added to assay plates to quantify the amount of the target proteins. Assay plates were read on the Luminex 200 and data were expressed as Net Median Fluorescence Intensity. […] The concentration of each protein was extrapolated from the antigen standard curve and concentrations were expressed as pg/mL (Table 15).

[1] = TNFα 25 ng/mL + IFNγ 25 ng/mL, drug 25 nM
[2] = TNFα 25 ng/mL + IFNγ 25 ng/mL, drug 50 nM
[3] = TNFα 25 ng/mL + IFNγ 25 ng/mL, drug 100 nM
[4] = TNFα 25 ng/mL + IFNγ 25 ng/mL, drug 200 nM

Cc1n[nH]c(C)c1-c1cnn(C2(CC#N)CN(c3cc(F)c(C(=O)N[C@@H](C)C(F)(F)F)cc3F)C2)c1 [Cpc C]
BDNF concentration [1]: 4.01 ± 0.19 pg/mL
EGF concentration [1]: 1.54 ± 0.13 pg/mL
Eotaxin concentration [1]: 10.08 ± 0.15 pg/mL
FGF-2 concentration [1]: 21.41 ± 1.39 pg/mL
GM-CSF concentration [1]: 130 ± 3.15 pg/mL
GRO alpha concentration [1]: 548.93 ± 27.91 pg/mL
HGF concentration [1]: 13.66 ± 0.51 pg/mL
IFN alpha concentration [1]: 0.25 ± 0.01 pg/mL
bNGF concentration [1]: 7.86 ± 0.56 pg/mL
BDNF concentration [2]: 4 ± 0.23 pg/mL
EGF concentration [2]: 1.14 ± 0.17 pg/mL
Eotaxin concentration [2]: 9.84 ± 0.25 pg/mL
FGF-2 concentration [2]: 20.77 ± 1.37 pg/mL
GM-CSF concentration [2]: 126.18 ± 3.4 pg/mL
GRO alpha concentration [2]: 544.74 ± 37.71 pg/mL
HGF concentration [2]: 13.04 ± 0.28 pg/mL
IFN alpha concentration [2]: 0.26 ± 0 pg/mL
bNGF concentration [2]: 6.86 ± 0.6 pg/mL
BDNF concentration [3]: 4.24 ± 0.26 pg/mL
EGF concentration [3]: 1.35 ± 0.18 pg/mL
Eotaxin concentration [3]: 9.89 ± 0.22 pg/mL
FGF-2 concentration [3]: 20.84 ± 1.31 pg/mL
GM-CSF concentration [3]: 134.94 ± 4.45 pg/mL
GRO alpha concentration [3]: 575.98 ± 43.22 pg/mL
HGF concentration [3]: 13.53 ± 0.5 pg/mL
IFN alpha concentration [3]: 0.26 ± 0 pg/mL
bNGF concentration [3]: 6.93 ± 1.04 pg/mL
BDNF concentration [4]: 3.97 ± 0.22 pg/mL
EGF concentration [4]: 1.46 ± 0.17 pg/mL
Eotaxin concentration [4]: 9.89 ± 0.21 pg/mL
FGF-2 concentration [4]: 20.93 ± 1.37 pg/mL
GM-CSF concentration [4]: 132.6 ± 3.95 pg/mL
GRO alpha concentration [4]: 560.99 ± 43.32 pg/mL
HGF concentration [4]: 13.6 ± 0.53 pg/mL
IFN alpha concentration [4]: 0.26 ± 0 pg/mL
bNGF concentration [4]: 5.7 ± 0.76 pg/mL
BDNF concentration (no stimulation, drug 200 nM): 5.7 ± 0.31 pg/mL
EGF concentration (no stimulation, drug 200 nM): 1.12 ± 0.14 pg/mL
Eotaxin concentration (no stimulation, drug 200 nM): 2.28 ± 0.07 pg/mL
FGF-2 concentration (no stimulation, drug 200 nM): 8.77 ± 0.79 pg/mL
GM-CSF concentration (no stimulation, drug 200 nM): 9.48 ± 1.48 pg/mL
GRO alpha concentration (no stimulation, drug 200 nM): 236.87 ± 11.04 pg/mL
HGF concentration (no stimulation, drug 200 nM): 4.74 ± 0.47 pg/mL
IFN alpha concentration (no stimulation, drug 200 nM): 0.2 ± 0.03 pg/mL
IFN gamma concentration (no stimulation, drug 200 nM): 3.81 ± 0.74 pg/mL
bNGF concentration (no stimulation, drug 200 nM): 3.73 ± 0.63 pg/mL
